Here are results for seven compounds from patent US9127024B2 (Intrexon Corporation, priority 2013, dated 2015).

The term AUC(0-t) denotes exposure summed from dosing to a finite time, without extrapolation to infinity. Read a high AUC(0-t) as high exposure. Usually Cmax stands for the maximum level reached in the sampled fluid or tissue. One may read the Tmax as the time at which the peak concentration occurs. A word on the pEC50: it is the EC50 on a negative log10 scale, so that one unit is a factor of ten. By half-life is commonly meant the time needed for the level to fall by half in the phase considered. Read a low half-life as fast loss.

One data set is described as follows: in vivo. Particulars: female, Sprague Dawley, rat, po, 10 mg/kg.
Data set [1] deals with RheoSwitch® (CHO-K1_RS-1 cells, firefly Luciferase reporter) (Choristoneura fumiferana, UniProt O77240). Briefly: in vitro gene switch assay (fLUC Luciferase expression, potency screen). Particulars: read-out: fLUC assay EC50, 24 hours with compound, 25 μM to 2.5 pM, figure in parentheses after a value not defined. The data set is classed as cell-based. The text has this:
Gene switch assays are disclosed, e.g., in U.S. Pat. Nos. 8,076,517; 7,456,315; 7,304,161; and 6,258,603.
CHO-K1 cells were stably transfected with a plasmid (RS-1, FIG. 1) coding for firefly Luciferase (fLUC) under the control of the RheoSwitch® resulting in the stable cell line CHO-K1_RS-1. A master cell bank was created containing approximately 100 vials at 5×10^6 cells per vial. One vial of CHO-K1_RS-1 was thawed and cultured for two weeks prior to each in vitro potency screening.
Twenty-four (24) hours prior to treatment with the control and test compounds the CHO-K1_RS-1 cells were seeded into white-opaque 384-well cell culture plates at 3,600 cells per well in 30 μl of culture medium. The cells were incubated in a humidified CO2 incubator at 37° C. until compound treatment.
Compounds were prepared at 25 mM in 100% dry DMSO and stored at room temperature in sealed 1 ml tubes prior to subsequent dilution and assay. On the day of cell treatment the tubes containing the control and test compounds were sorted and the ligands transferred to a 96-well polypropylene plate for subsequent dilution. The compounds were diluted in 100% dry DMSO in an 8-point, 10-fold dilution series ranging from 25 mM to 2.5 nM using the Biomek FX automated liquid handler.
The diluted compounds were then transferred to each well of 384-well polypropylene plate in quadruplicate resulting in a single 384-well plate with four replicates of each compound dilution in a different quadrant of the plate. Each well on the 384-well plate received 20 μl of diluted compound. The 384-well plates containing diluted compound and the plates containing cells in culture were loaded onto the Biomek FX and 30 nl of compound was delivered to each well containing cells using a 384-pin V&P Scientific Pin Tool. The resulting 1000-fold dilution (30 nl to 30 μl) generated a final dosing range of 25 μM to 2.5 pM in 0.1% DMSO. Two replicate plates were produced to supply a dedicated plate for the Luciferase expression assay and the APH cell viability assay.
The cells were incubated with the compound for 24 hours in a humidified CO2 incubator at 37° C. Following incubation, the cells were assayed for Luciferase expression (fLUC assay) using the Steady Glo assay from Promega. Cells were equilibrated to room temperature for 15 minutes prior to reagent addition. Thirty micro liters (30 μl) of assay reagent was added to each well of the 384-well plate using the Biomek FX. The reagent was incubated with the cells for 10-120 minutes prior to reading on a Molecular Devices Spectramax L luminometer. The assay reagents were prepared as per the manufacturer's instructions.
The Luciferase expression data was normalized to the baseline signal from cells treated with DMSO alone. The ratio of signal from treated cells to vehicle-treated cells was plotted and non-linear regress was performed using Graph Pad Prism software. EC50, (log)EC50 and Hill slope data was generated. Reporter gene expression, e.g., luciferase expression, serves as a proxy for the expression of a gene of interest. See, e.g., US 2009/0123441 and WO 2011/119773.

The nature of data set [2]: Pharmacokinetic (PK) study, oral gavage, plasma LC-MS/MS. Particulars: for Clearance: oral clearance.
Experimental: (§1) Female Sprague Dawley rats were fasted for at least 8 hours (overnight) prior to oral dosing of the compound via gavage (10 mg/kg; vehicle=2 mg/mL of Capryol 90/Triacetin (1:1, v/v); 3 animals/compound) and weighed prior to dosing. The correct volume of the appropriate formulation was administered based on that day's (animal) body weight. Body weight, dose volume, and dosing time was recorded for each animal. Animals were not fed for at least 4 hours following activator ligand administration.
(§2) Approximately 200 μL/blood sample was collected from the catheter sample points in EDTA tubes at each time point from each animal. The exact time of blood collection was recorded for each animal Blood samples were held at 4° C. (wet ice) starting immediately after collection and were centrifuged within 15 minutes from the collection for 12 minutes at 2500 rpm. After centrifugation, plasma samples were stored at ^−80° C. until assay. Sample times were as follows: Day 0: 0, 0.5, 1, 2, 3, 4, 6 and 8 hours; Day 1: 24 hours.
(§3) LC-MS/MS Method: Liquid chromatography tandem mass spectrometry with protein precipitation method was used to quantify the compound in rat plasma samples collected from all animals dosed with the ligand. Linearity range was from 1 ng/mL to 1000 ng/mL, with correlation coefficient for calibration curves above 0.99 and analyte quantified within ±15% of target at all calibrator concentrations.
(§4) The plasma ligand concentration was calculated by extrapolating the area under the curve values for the samples from the standard curve generated by the Analyst® software program. The ng/mL values for the plasma samples representing all the animals were used to generate the pharmacokinetic (PK) parameters.
[3] abbreviates: female Sprague Dawley rats, oral gavage 10 mg/kg, Capryol 90/Triacetin (1:1, v/v), listed as Cpd. No. 59 (Lot # 1), 10 mg/kg.
Setting [4] is: female Sprague Dawley rats, oral gavage 10 mg/kg, Capryol 90/Triacetin (1:1, v/v), listed as Cpd. No. 59 (Lot # 2), 10 mg/kg.
Where [5] appears, read: female, Sprague Dawley, rat, po, 10 mg/kg, Cmax, female Sprague Dawley rats, oral gavage 10 mg/kg, Capryol 90/Triacetin (1:1, v/v).
[6] abbreviates: female, Sprague Dawley, rat, po, 10 mg/kg, half-life, female Sprague Dawley rats, oral gavage 10 mg/kg, Capryol 90/Triacetin (1:1, v/v).
Setting [7] is: female, Sprague Dawley, rat, po, 10 mg/kg.
Where [8] appears, read: female Sprague Dawley rats, oral gavage 10 mg/kg, Capryol 90/Triacetin (1:1, v/v).
[9] abbreviates: female Sprague Dawley rats, oral gavage 10 mg/kg, Capryol 90/Triacetin (1:1, v/v), listed as Cpd. No. 13 (Lot # 1), 10 mg/kg.
[10] abbreviates: female Sprague Dawley rats, oral gavage 10 mg/kg, Capryol 90/Triacetin (1:1, v/v), listed as Cpd. No. 13 (Lot # 2), 10 mg/kg.
[11] abbreviates: female, Sprague Dawley, rat, po, 10 mg/kg, Tmax, female Sprague Dawley rats, oral gavage 10 mg/kg, Capryol 90/Triacetin (1:1, v/v).
Setting [12] is: female, Sprague Dawley, rat, po, 10 mg/kg, AUC0−t, female Sprague Dawley rats, oral gavage 10 mg/kg, Capryol 90/Triacetin (1:1, v/v).

pEC50: −log10 of the molar value.

RheoSwitch® (CHO-K1_RS-1 cells, firefly Luciferase reporter), sequence (O77240 1-513): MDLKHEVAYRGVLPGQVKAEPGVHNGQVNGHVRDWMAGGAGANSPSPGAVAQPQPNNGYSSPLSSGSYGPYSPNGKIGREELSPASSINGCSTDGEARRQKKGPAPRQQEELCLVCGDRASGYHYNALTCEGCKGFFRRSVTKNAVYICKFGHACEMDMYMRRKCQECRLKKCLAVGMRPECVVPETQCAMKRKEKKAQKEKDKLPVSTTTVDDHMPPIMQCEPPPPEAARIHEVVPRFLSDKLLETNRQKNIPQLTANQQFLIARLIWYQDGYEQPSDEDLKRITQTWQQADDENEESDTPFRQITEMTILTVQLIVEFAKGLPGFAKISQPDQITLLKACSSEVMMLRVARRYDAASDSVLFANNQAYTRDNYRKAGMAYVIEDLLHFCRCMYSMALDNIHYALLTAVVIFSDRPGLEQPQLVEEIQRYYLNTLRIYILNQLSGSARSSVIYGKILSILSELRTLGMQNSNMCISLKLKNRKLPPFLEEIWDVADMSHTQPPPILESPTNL
Experimental for in vivo: as §1, §2, §3, §4

Turning to `Cc1cc(C)cc(C(=O)N(NC(=O)c2ccc3c(c2C)OCCO3)C(C)(C)C)c1` [Cpd. C], the AUC(0-t) in “in vivo” (AUC0−t) turned out to be 510 ng·h/mL. Besides, in “in vivo” (Cmax), the Cmax came out at 112 ng/mL. The Tmax in “in vivo” (Tmax) is 2.5 h.

Take `CC[C@@H](N(NC(=O)c1ccc2c(c1F)B(O)OC2)C(=O)c1cc(C)cc(C)c1)C(C)(C)C` [Cpd. No. 59, (R)—N′-(3,5-dimethylbenzoyl)-N′-(2,2-dimethylpentan-3-yl)-7-fluoro-1-hydroxy-1,3-dihydrobenzo[c][1,2]oxaborole-6-carbohydrazide]: the pEC50 in data set [1] is 6.97. For the same compound, in data set [2] (setting [3]), the “AUC0−t” value is 127700 ng·h/mL, the Tmax worked out at 5 h and the Clearance came to 1.4 mL/min/kg. In data set [2] (setting [4]), the “AUC0−t” value was 300721 ng·h/mL, the Cmax worked out at 18833 ng/mL, the Tmax was determined as 1.8 h and the half-life amounted to 10.0 h. In data set [2] (setting [4]), this compound yielded a Clearance of 0.538 mL/min/kg. In addition, the highest level in data set [2] (setting [5]) (Cmax) was 11200 ng/mL. In addition, the half-life in data set [2] (setting [6]) is 5.2 h.

Regarding `Cc1cc(C)cc(C(=O)N(NC(=O)c2ccc3c(c2C)OCCOB3O)C(C)(C)C)c1`, in data set [1], the negative logarithm of the EC50 (pEC50) is 6.59. For the same compound, in data set [2] (setting [7]), the AUC(0-t) is 13200 ng·h/mL, the Cmax was found to be 1280 ng/mL, the Tmax worked out at 2.3 h and the half-life was 11 h. For the same compound, the Clearance in data set [2] (setting [8]) stood at 10.2 mL/min/kg.

Consider `CCC[C@@H](N(NC(=O)c1ccc(B(O)O)cc1F)C(=O)c1cc(C)cc(C)c1)C(C)(C)C` [Cpd. No. 13, (R)-(4-(2-(3,5-dimethylbenzoyl)-2-(2,2-dimethylhexan-3-yl)hydrazinecarbonyl)-3-fluorophenyl)boronic acid], for which the pEC50 in data set [1] is 7.19. Moreover, in data set [2] (setting [9]), the “AUC0−t” value was 10579 ng·h/mL, the peak concentration (Cmax) came to 1415 ng/mL and the Clearance came to 15.6 mL/min/kg. Further, in data set [2] (setting [10]), the “AUC0−t” value worked out at 60407 ng·h/mL, the Cmax was determined as 7060 ng/mL, the Tmax stood at 3.3 h and the half-life amounted to 4.3 h. The Clearance in data set [2] (setting [10]) amounted to 2.82 mL/min/kg. The Tmax in data set [2] (setting [11]) turned out to be 2.7 h. In data set [2] (setting [6]), the half-life is 3.2 h.

Consider `Cc1cc(C)cc(C(=O)N(NC(=O)c2cccc(B(O)O)c2F)C(C)(C)C)c1` [Cpd. No. 5], for which the pEC50 in data set [1] was 6.52. The same compound showed an AUC(0-t) in data set [2] (setting [12]) of 18800 ng·h/mL. Further, in data set [2] (setting [5]), the Cmax was 1890 ng/mL. In addition, the Tmax in data set [2] (setting [11]) is 4 h. This compound gave a half-life in data set [2] (setting [6]) of 4 h. In data set [2] (setting [8]), this compound gave a Clearance of 8.88 mL/min/kg.

Turning to `CC[C@@H](N(NC(=O)c1ccc2c(c1F)COB2O)C(=O)c1cc(C)cc(C)c1)C(C)(C)C` [Cpd. No. 67, (R)—N′-(3,5-dimethylbenzoyl)-N′-(2,2-dimethylpentan-3-yl)-4-fluoro-1-hydroxy-1,3-dihydrobenzo[c][1,2]oxaborole-5-carbohydrazide], the pEC50 in data set [1] is 6.51. For the same compound, the AUC(0-t) in data set [2] (setting [12]) amounted to 24500 ng·h/mL. This compound also returned a Cmax in data set [2] (setting [5]) of 3320 ng/mL. In data set [2] (setting [11]), the Tmax was determined as 3 h. In data set [2] (setting [6]), this compound had a half-life of 5.5 h. The compound also returned a Clearance in data set [2] (setting [8]) of 6.63 mL/min/kg.

As for `Cc1cc(C)cc(C(=O)N(NC(=O)c2ccc3c(c2F)B(O)OC3)C(C)(C)C)c1` [Cpd. No. 58, N′-(tert-butyl)-N′-(3,5-dimethylbenzoyl)-7-fluoro-1-hydroxy-1,3-dihydrobenzo[c][1,2]oxaborole-6-carbohydrazide], in data set [1], the pEC50 is 6.19. In data set [2] (setting [12]), this compound gave an AUC(0-t) of 30800 ng·h/mL. In addition, the Cmax in data set [2] (setting [5]) is 2650 ng/mL. In addition, in data set [2] (setting [11]), the Tmax was determined as 3 h. Besides, in data set [2] (setting [6]), the half-life is 15.4 h. Further, the Clearance in data set [2] (setting [8]) was determined as 3.57 mL/min/kg.
